Assay results from patent US20230173004A1, “Method and Composition for Treating Ringworm on Biotic and Abiotic Surfaces” (Jeneil Biosurfactant Company, LLC, priority 2021, published 2023).

Test system: ringworm infection
Test: Treatment of ringworm infections on the skin of volunteer patients
Type: in vivo, human
Settings: twin teenage boys; prescribed oral treatment
Experimental: The effectiveness of Composition A in treating fungal infections on the skin was determined on volunteer patients. In a first case, twin teenage boys were experiencing ringworm infections on the face, scalp, and neck. […] For […], the ringworm sores on […] face were treated by directly applying Composition A to the sores.
The other teenage child was treated with a 100% solution of Composition A by dabbing it on the sores of their scalp and neck using a cotton swab twice a day over the course of 3 days. Various sores were treated over the next four to seven days with a diluted solution of Composition A. In particular, a few drops of Composition A were diluted with 10 drops of water, and the diluted solution was applied to the sores. […] Thereafter, a 1:100 solution of Composition A in water was used as a preventative treatment on the scalp prior to showering to avoid new ringworm infections.
Thus, in a second test case, Composition A was used to treat a ringworm infection on the neck and shoulder region of a teenage child. Composition A was formulated with an aloe vera clear cream at a 2% w/v.
In a third case, a middle-aged person was experiencing a significant ringworm infection on one foot. The ringworm infection was treated with Composition A in an aloe vera clear cream at 2% w/v.

OC(Cn1cncn1)(Cn1cncn1)c1ccc(F)cc1F [oral fluconazole, fluconazole]
ringworm infections on face, scalp and neck: ineffective at completely eradicating the ringworm infection
